Assay results taken from patent US20250282795A1, “EGFR Inhibitors in cancer treatment” (Celyn Therapeutics, Inc., priority 2022, published 2025).

Legend:
Format in all cases: cell-based
Ba/F3 (A767_dupASV) = assay: Cellular growth inhibition assay (CellTiter-Glo), Ba/F3 (A767_dupASV); details: Mus musculus, BaF3, 72 h; 3 days of incubation; read-out: Ba/F3 (A767_dup ASV) CC50
Procedure: (§1) Example E. Cellular Growth Inhibition Assay
(§2) Ba/F3(Empty vector) (Signosis), Ba/F3(Wild type) (Signosis), Ba/F3(L^858R+T790M) (Signosis), Ba/F3(A767_dupASV) (Signosis), Ba/F3(D770_N771insSVD) (Signosis), Ba/F3(H773_V774insNPH) (Signosis) were seeded at a density of 4000 cells per well in a CellBIND® 384-well Flat Clear Bottom Black Polystyrene Microplates (Coming, USA, Cat #3770) in 45 μl total volume of RPMI (PanEco, Cat #C330, Russia) with […] (HyClone, Cat #SV30160.03) and with 10 ng/ml rmIL-3 (RD systems, USA, Cat #403-ML-025) (for BaBF3(Empty vector)) and with 10 ng/ml rhEGF (ThermoFisher, USA, Cat #PHG0311L) (for BaCF3(Wild type)). 500× compounds solutions in DMSO (Sigma Cat #D2650) were prepared into Cmpnds plate (DiamondWell Plate, Axigen, Cat #P-384-120SQ-C—S) and DMSO only control was included. 1.l of 500× compounds (Cmpnds plate) was added to 49 µl of culture medium into Dilution plate (Diamond Well Plate, Axigen, Cat #P-384-120SQ-C—S), mixed and then 5 μl of 10× compounds solutions were transferred to cells followed by centrifugation at 100 g for 1 min. Final DMSO concentration was 0.2% o. After 3 days of incubation 10.l of CellTiter-Glo (Promega, CAT #G7572) were added to the cells, plate was centrifuged at 100 g for 1 min and luminescence signal was measured using Microplate Reader (CLARIOStar).

Ba/F3 (D770_N771insSVD) = assay: Cellular growth inhibition assay (CellTiter-Glo), Ba/F3 (D770_N771insSVD); details: Mus musculus, BaF3, 72 h; 3 days of incubation; read-out: Ba/F3 (D770_N771 insSVD) CC50
Procedure: as §1, §2

Ba/F3 (H773_V774insSVD) = assay: Cellular growth inhibition assay (CellTiter-Glo), Ba/F3 (H773_V774insSVD); details: Mus musculus, BaF3, 72 h; 3 days of incubation; read-out: Ba/F3 (H773_V774 insSVD) CC50
[1] = Cellular growth inhibition assay (CellTiter-Glo), Ba/F3 (Empty vector); details: mouse, Ba/F3 cells with empty vector; Ba/F3 (Empty vector) with 10 ng/ml rmIL-3, 3 days of incubation
Procedure: as §1, §2

Ba/F3 (L858R + T790M) = assay: Cellular growth inhibition assay (CellTiter-Glo), Ba/F3 (L858R+T790M); details: Mus musculus, BaF3, 72 h; 3 days of incubation
Procedure: as §1, §2

| Compound | CC50 (Ba/F3 (A767_dupASV)) | CC50 (Ba/F3 (D770_N771insSVD)) | CC50 (Ba/F3 (H773_V774insSVD)) | CC50 at 3 days [1] | CC50 (Ba/F3 (L858R + T790M)) |
| --- | --- | --- | --- | --- | --- |
| COc1c(F)cccc1Nc1c2[nH]c3c1C(=O)NC[C@@H]3CCCN1CC[C@@H](COc3cnccc3-2)C1 (stereo in doubt) [Compound 162, 20-[(3-Fluoro-2-methoxyphenyl)amino]-6,7,8,9,11,12,13,13a,14,15-decahydro-7,10-methano-17,19-methenodipyrido[3,4-b:4′,3′-f][1,5,11]oxadiazacyclopentadecin-16(18H)-one] | > 10 µM | > 10 µM | > 10 µM | > 10 µM | > 10 µM |
| COc1c(F)cccc1Nc1c2[nH]c3c1C(=O)NC[C@H]3CCCN1CC[C@@H](COc3cnccc3-2)C1 (stereo in doubt) [Compound 163, 20-[(3-Fluoro-2-methoxyphenyl)amino]-6,7,8,9,11,12,13,13a,14,15-decahydro-7,10-methano-17,19-methenodipyrido[3,4-b:4′,3′-f][1,5,11]oxadiazacyclopentadecin-16(18H)-one] | 0.01 to 0.1 µM | 0.1 to 1 µM | 0.1 to 1 µM | > 10 µM | > 10 µM |
| COc1c(F)cccc1Nc1c2[nH]c3c1C(=O)NCC3CCCN1CCCC(COc3cnccc3-2)C1 (stereo not shown) [Compound 12, 21-[(3-Fluoro-2-methoxyphenyl)amino]-7,8,9,10,12,13,14,14a,15,16-decahydro-6H-7,11-methano-18,20-methenodipyrido[3,4-b:4′,3′-f][1,5,11]oxadiazacyclohexadecin-17(19H)-one] | 0.1 to 1 µM | 1 to 10 µM | > 10 µM | > 10 µM | > 10 µM |
| COc1c(F)cccc1Nc1c2[nH]c3c1C(=O)NCC3CCCCCOc1cnccc1-2 (stereo not shown) [Compound 101, 1^3-((3-Fluoro-2-methoxyphenyl)amino)-1^4,1^5,1^6,1^7-tetrahydro-l^1H-3-oxa-1(2,7)-pyrrolo[3,2-c]pyridina-2(4,3)-pyridinacyclooctaphan-1^4-one] | 0.01 to 0.1 µM | 0.1 to 1 µM | 0.1 to 1 µM | > 10 µM | 1 to 10 µM |
| COc1c(F)cccc1Nc1c2[nH]c3c1C(=O)NCC3CCCCN1CC(COc3cnccc3-2)C1 (stereo not shown) [Compound 123, 20-(3-fluoro-2-methoxyanilino)-7,8,11,12,13,13a,14,15-octahydro-6H,10H-7,9-methano-17,19-(metheno)dipyrido[3,4-b: 4′,3′-f][1,5,12]oxadiazacyclopentadecin-16(18H)-one] | 0.001 to 0.01 µM | 0.01 to 0.1 µM | 0.1 to 1 µM | 1 to 10 µM | 0.1 to 1 µM |
| COc1c(F)cccc1Nc1c2[nH]c3c1C(=O)NC(CCCCOCCOc1cnccc1-2)C3 (stereo not shown) [Compound 133, 20-(3-fluoro-2-methoxyanilino)-2,3,5,6,7,8,9,10-octahydro-9,13-methano-12,15-(metheno)pyrido[3,4-e][1,4,8,12]dioxadiazacycloheptadecin-11(14H)-one] | 1 to 10 µM | > 10 µM | > 10 µM | > 10 µM | > 10 µM |
| COc1c(F)cccc1Nc1c2[nH]c3c1C(=O)NCC3CC=CCN1CCC(CC1)COc1cnccc1-2 (stereo not shown) [Compound 135, 21-(3-fluoro-2-methoxyanilino)-6,7,8,9,14,14a,15,16-octahydro-11H-7,10-ethano-18,20-(metheno)dipyrido[3,4-b: 4′,3′-f][1,5,12]oxadiazacyclohexadecin-17(19H)-one] | > 10 µM | > 10 µM | > 10 µM | > 10 µM | > 10 µM |
| COc1c(F)cccc1Nc1c2[nH]c3c1C(=O)NCC3CCCCN1CCC(CC1)COc1cnccc1-2 (stereo not shown) [Compound 136, 21-[(3-Fluoro-2-methoxyphenyl)amino]-6,7,8,9,12,13,14,14a,15,16-decahydro-11H-7,10-ethano-18,20-methenodipyrido[3,4-b:4′,3′-f][1,5,12]oxadiazacyclohexadecin-17(19H)-one] | 1 to 10 µM | > 10 µM | > 10 µM | > 10 µM | > 10 µM |
